Results taken from patent publication US20250283885A1, “MODULAR BIOSENSOR FOR RECEPTOR TYROSINE KINASE ACTIVITY” (The Trustees of Princeton University, priority 2024, published 2025).

Experiments:
EGFR and Erk signaling = test: EGFR pYtag and ErkKTR in MCF10A clusters on soft substrata; format: cell-based, human
Method: At the tissue scale, the spatiotemporal distribution of RTK signaling can also be regulated by several processes including paracrine signaling, morphogen gradients, and the mechanical properties of the local microenvironment. It was therefore asked whether pYtags could be used to monitor RTK signaling in multicellular contexts.
To prepare polyacrylamide substrata, 1.5-mm-thick glass coverslips were pre-treated with glutaraldehyde. First, coverslips were treated with 0.1 N NaOH for 30 min, followed by rinsing with deionized water and air drying. Coverslips were then treated with 2% aminopropyltrimethoxysilane (Sigma Aldrich) in acetone for 30 min, washed three times with acetone, and left to air dry. Coverslips were treated with 0.5% glutaraldehyde (Sigma Aldrich) in PBS for 30 min, washed with deionized water, and left to air dry. Custom glass-bottom dishes were prepared by replacing the bottoms of 35 mm TCPS dishes with glutaraldehyde-treated coverslips, which were sealed using PDMS (Sigma Aldrich).
To investigate the dynamics of this spatial pattern, EGFR signaling was monitored using two live-cell biosensors: EGFR pYtag and a kinase translocation reporter for downstream signaling through Erk (ErkKTR).

ErbB2 [1] = test: ErbB2 pYtag (with EGFR-Citrine) in NIH 3T3 cells: clearance of cytosolic ZtSH2; format: cell-based; conditions: NIH 3T3, required ITAMs on ErbB2 and co-expression of EGFR
Method: One advantage of the pYtag approach is its modularity: ITAMs can in principle be fused to the C-termini of many different RTKs and recruit ZtSH2 upon stimulation. Therefore, it was tested whether pYtags could be adapted to monitor the activity of receptors other than EGFR. pYtag biosensors were designed for two additional RTKs: 1) ErbB2, a ligandless member of the ErbB family that signals by heterodimerizing with ligand-bound EGFR; and 2) fibroblast growth factor receptor 1 (FGFR1), a non-ErbB family RTK. ErbB2 is a particularly challenging RTK to study because it can only be activated in conjunction with an additional RTK (e.g., EGFR), so Grb2-based biosensors would be unable to distinguish between the activity of EGFR and ErbB2.
Starting from NIH 3T3 cells expressing iRFP-ZtSH2, cell lines expressing either an ErbB2 pYtag (ErbB2-CD3ε-FusionRed), an FGFR1 pYtag (FGFR1-CD3ε-FusionRed), or ITAM-less variants of each were generated. For the ErbB2 case, cells with EGFR-Citrine were further transduced to express both required components of a functional receptor heterodimer (see FIG. 3, and FIGS. 4A-4B).
The pYtag approach is indeed modular, and this strategy can be readily adapted for monitoring the activation of distinct RTKs in individual cells.

ErbB2 [2] = test: Multiplexed pYtags in NIH 3T3 cells: ErbB2 reporter (iRFP-ZtSH2; ErbB2-CD3ε-FusionRed); format: cell-based; conditions: 100 ng/mL
Source text: Having characterized an orthogonal pair of pYtags, it was recognized that these biosensors could be used to simultaneously monitor the activation of both EGFR and ErbB2. NIH 3T3 cells that co-expressed pYtags for EGFR (Clover-VISH2; EGFR-SLP76-BFP) and ErbB2 (iRFP-ZtSH2; ErbB2-CD3ε-FusionRed) were generated. […] VISH2 cleared from the cytosol almost immediately (<30 sec), indicating rapid phosphorylation of the EGFR C-terminal tail. […] Although the absolute magnitude of tSH2 biosensor clearance varied between cell lines (likely due to differences in affinity and expression level), the dynamics of EGFR and ErbB2 activation were highly reproducible in all cases, irrespective of the cell line or pYtag.

EGFR R84K or A265V = test: pYtag response of GBM-associated mutant EGFRs in NIH 3T3 cells; format: cell-based, mouse; conditions: 20 ng/ml, NIH 3T3 cells expressing R84K or A265V EGFR
Source text: To validate the prediction of our model, the dimerization affinity of EGFR was experimentally altered and signaling responses were monitored using pYtags. One can turn to glioblastoma multiform (GBM)-associated mutations in the extracellular domain of EGFR (R84K and A265V point mutations), which were previously shown to increase the dimerization affinity of EREG- and EPGN-bound receptors. These GBM-associated mutations were first modeled in EGFR by decreasing β and γ by 6-fold and 650-fold, respectively. […] NIH 3T3 cell lines expressing pYtag biosensors of EGFR variants harboring either the R84K or A265V mutation were then generated.
The data reveal ligand-dependent EGFR signaling dynamics at unprecedented temporal resolution and point to the dimerization affinity of ligand-bound receptors as a key parameter that governs these responses. More broadly, combining pYtags with mathematical modeling can shed mechanistic insight into the signaling dynamics of RTKs.

EGFR = EGFR (Homo sapiens, UniProt P00533); test: EGFR pYtag live-cell imaging: clearance of cytosolic ZtSH2 in NIH 3T3 cells
Source text: Six ITAMs from the CD3γ, CD3δ, CD3ε, and CD3ζ chains of the TCR. In each case, three identical repeats of the ITAM were fused to the C-terminal tail of EGFR followed by the FusionRed fluorescent protein (EGFR-ITAM-FusionRed). Each receptor was the co-expressed with an iRFP-labeled ZtSH2 (iRFP-ZtSH2) in NIH 3T3 fibroblasts, which express negligible levels of EGFR. […] Because ZtSH2 can in principle be recruited rapidly on and off the membrane and may localize to distinct subcellular compartments, it was reasoned that pYtags could be used to monitor the subcellular activity of an RTK in individual cells over time.

Substance | Delay in EGFR and Erk signaling between periphery and interior of clusters (EGFR and Erk signaling) [min] | Delay of Erk responses behind EGFR responses (EGFR and Erk signaling) [min] | ZtSH2 response of ErbB2 pYtag-expressing cells (ErbB2 [1]) | Time of ZtSH2 clearance from the cytosol (ErbB2 phosphorylation) (ErbB2 [2]) [min] | pYtag signaling response of GBM-associated mutant EGFR (EGFR R84K or A265V) | pYtag signaling response of WT EGFR (EGFR; 20 ng/ml, NIH 3T3 cells expressing WT EGFR) | EGFR activity dynamics after low-affinity ligand (EGFR; varying doses, NIH 3T3 EGFR pYtag)
EGF: epidermal growth factor, high-affinity EGFR ligand (NSDSECPLSHDGYCLHDGVCMYIEALDKYACNCVVGYIGERCQYRDLKWWELR; Epidermal growth factor; UniProt P01133 971-1023, looked up) | 2 to 4 | ~4 | clearance of ZtSH2 from the cytosol | ~3 | – | – | –
EREG: epiregulin, low-affinity EGFR ligand | – | – | – | – | stronger response that gradually increased over time | transient peak of activation and rapid plateau | rapid rise in EGFR activity followed by a plateau within minutes
